According to ChEMBL document CHEMBL1201862, “PubChem BioAssay data set” (2004):
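Grown in 96-well plates, cells were treated for 48 hours with each compound at five concentrations. Insufficient inhibition: endpoint recorded as highest concentration tested. GI50 is the concentration that inhibits growth by half.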 The source made the active and inactive calls. Rule as the data show it: active = GI50 up to about 1.1 µM and inactive = higher.

Key:
Assay in all cases: inhibition of tumour cell growth, NCI panel, 48 h
786-0 = system: 786-0
A498 = system: A498
A549 = system: A549
ACHN = system: ACHN
BT-549 = system: BT-549
CAKI-1 = system: CAKI-1
CCRF-CEM = system: CCRF-CEM
COLO 205 = system: COLO 205
DU-145 = system: DU-145
EKVX = system: EKVX
HCC 2998 = system: HCC 2998
HCT-116 = system: HCT-116
HCT-15 = system: HCT-15
HL-60 = system: HL-60
HOP-62 = system: HOP-62
HOP-92 = system: HOP-92
HT-29 = system: HT-29
Hs-578T = system: Hs-578T
IGROV-1 = system: IGROV-1
K562 = system: K562
KM12 = system: KM12
LOX IMVI = system: LOX IMVI
M14 = system: M14
MCF7 = system: MCF7
MDA-MB-231 = system: MDA-MB-231
MDA-MB-435 = system: MDA-MB-435
MOLT-4 = system: MOLT-4
Malme-3M = system: Malme-3M
NCI-H226 = system: NCI-H226
NCI-H23 = system: NCI-H23
NCI-H460 = system: NCI-H460
NCI-H522 = system: NCI-H522
NCI/ADR-RES = system: NCI/ADR-RES
OVCAR-3 = system: OVCAR-3
OVCAR-4 = system: OVCAR-4
OVCAR-5 = system: OVCAR-5
OVCAR-8 = system: OVCAR-8
PC-3 = system: PC-3
RPMI-8226 = system: RPMI-8226
RXF 393 = system: RXF 393
SF-268 = system: SF-268
SF-295 = system: SF-295
SF-539 = system: SF-539
SK-MEL-28 = system: SK-MEL-28
SK-MEL-2 = system: SK-MEL-2
SK-MEL-5 = system: SK-MEL-5
SK-OV-3 = system: SK-OV-3
SN12C = system: SN12C
SNB-19 = system: SNB-19
SNB-75 = system: SNB-75
SR = system: SR
SW-620 = system: SW-620
T47D = system: T47D
TK-10 = system: TK-10
U-251 = system: U-251
UACC-257 = system: UACC-257
UACC-62 = system: UACC-62
UO-31 = system: UO-31

`CC(=O)O[C@H]1/C(=C/c2ccncc2)C[C@H]2[C@@H]3CC=C4C[C@@H](N5CCCC5)CC[C@]4(C)[C@H]3CC[C@]12C` was tested, and the GI50 (786-0) was 3.15 µM (inactive), the GI50 (A498) was 16.7 µM (inactive) and the GI50 (A549) was 11.8 µM (inactive). The GI50 (ACHN) was 14.1 µM (inactive), the GI50 (BT-549) was 20.5 µM (inactive) and the GI50 (CAKI-1) was 14 µM (inactive). The GI50 (CCRF-CEM) was 15.2 µM (inactive), the GI50 (COLO 205) was 11.4 µM (inactive) and the GI50 (DU-145) was 14.6 µM (inactive). For the same compound, the GI50 (EKVX) was 13.9 µM (inactive), the GI50 (HCC 2998) was 12.2 µM (inactive) and the GI50 (HCT-116) was 3.41 µM (inactive). The GI50 (HCT-15) was 10.1 µM, the GI50 (HL-60) was 8.38 µM (inactive) and the GI50 (HOP-62) was 14.2 µM (inactive). The GI50 (HOP-92) was 4.24 µM (inactive), the GI50 (HT-29) was 1.49 µM (inactive) and the GI50 (Hs-578T) was 16.6 µM (inactive). For the same compound, the GI50 (IGROV-1) was 12.6 µM (inactive), the GI50 (K562) was 2.74 µM (inactive) and the GI50 (KM12) was 11.9 µM (inactive). For the same compound, the GI50 (LOX IMVI) was 2.32 µM (inactive), the GI50 (M14) was 9.35 µM (inactive) and the GI50 (MCF7) was 12.1 µM (inactive). The GI50 (MDA-MB-231) was 19.1 µM (inactive), the GI50 (MDA-MB-435) was 12.1 µM (inactive) and the GI50 (MOLT-4) was 11.5 µM (inactive). The GI50 (Malme-3M) was 13 µM (inactive), the GI50 (NCI-H226) was 19.3 µM (inactive) and the GI50 (NCI-H23) was 15.1 µM (inactive). For the same compound, the GI50 (NCI-H460) was 10.8 µM (inactive), the GI50 (NCI-H522) was 15.2 µM (inactive) and the GI50 (NCI/ADR-RES) was 8.95 µM (inactive). The GI50 (OVCAR-3) was 21.8 µM (inactive), the GI50 (OVCAR-4) was 15.9 µM (inactive) and the GI50 (OVCAR-5) was 13.2 µM (inactive). The GI50 (OVCAR-8) was 14 µM (inactive), the GI50 (PC-3) was 11.7 µM (inactive) and the GI50 (RPMI-8226) was 6.1 µM (inactive). For the same compound, the GI50 (RXF 393) was 6.9 µM (inactive), the GI50 (SF-268) was 15.1 µM (inactive) and the GI50 (SF-295) was 14.5 µM (inactive). For the same compound, the GI50 (SF-539) was 18.6 µM (inactive), the GI50 (SK-MEL-28) was 12.7 µM (inactive) and the GI50 (SK-MEL-2) was 15.5 µM (inactive). For the same compound, the GI50 (SK-MEL-5) was 8.53 µM (inactive), the GI50 (SK-OV-3) was 17.9 µM (inactive) and the GI50 (SN12C) was 17 µM (inactive). The GI50 (SNB-19) was 16.9 µM (inactive), the GI50 (SNB-75) was 14.7 µM (inactive) and the GI50 (SR) was 5.2 µM (inactive). For the same compound, the GI50 (SW-620) was 12.2 µM (inactive), the GI50 (T47D) was 13.4 µM (inactive) and the GI50 (TK-10) was 14.6 µM (inactive). For the same compound, the GI50 (U-251) was 11.5 µM (inactive), the GI50 (UACC-257) was 2.34 µM (inactive) and the GI50 (UACC-62) was 14.2 µM (inactive). The GI50 (UO-31) was 4.99 µM (inactive).

`CN(C)CN1C(=O)S/C(=C2\C(=O)N(CN(C)C)c3ccccc32)C1=O` was tested, and the GI50 (786-0) was 35.7 µM (inactive), the GI50 (A498) was > 100 µM (inactive) and the GI50 (A549) was 45.8 µM (inactive). The GI50 (ACHN) was 43.7 µM (inactive), the GI50 (BT-549) was 45.1 µM (inactive) and the GI50 (CAKI-1) was 32 µM (inactive). The GI50 (COLO 205) was 36.4 µM (inactive), the GI50 (DU-145) was 32.1 µM (inactive) and the GI50 (EKVX) was 43.3 µM (inactive). For the same compound, the GI50 (HCC 2998) was 26.8 µM (inactive), the GI50 (HCT-116) was 39.8 µM (inactive) and the GI50 (HCT-15) was 30.4 µM. For the same compound, the GI50 (HL-60) was 18.2 µM (inactive), the GI50 (HOP-62) was 41.6 µM (inactive) and the GI50 (HOP-92) was > 100 µM (inactive). For the same compound, the GI50 (HT-29) was 42.4 µM (inactive), the GI50 (Hs-578T) was 34.7 µM (inactive) and the GI50 (IGROV-1) was 57.5 µM (inactive). For the same compound, the GI50 (KM12) was 41.5 µM (inactive), the GI50 (LOX IMVI) was 21.2 µM (inactive) and the GI50 (M14) was 21.7 µM (inactive). The GI50 (MCF7) was 38.5 µM (inactive), the GI50 (MDA-MB-231) was 66.2 µM (inactive) and the GI50 (MDA-MB-435) was 66.1 µM (inactive). For the same compound, the GI50 (MOLT-4) was < 0.01 µM (active), the GI50 (NCI-H226) was 38.9 µM (inactive) and the GI50 (NCI-H23) was 21.7 µM (inactive). For the same compound, the GI50 (NCI-H460) was 32.3 µM (inactive), the GI50 (NCI-H522) was 36.5 µM (inactive) and the GI50 (NCI/ADR-RES) was 40.2 µM (inactive). The GI50 (OVCAR-3) was 50.2 µM (inactive), the GI50 (OVCAR-4) was 55.1 µM (inactive) and the GI50 (OVCAR-5) was > 100 µM (inactive). For the same compound, the GI50 (OVCAR-8) was 46.6 µM (inactive), the GI50 (PC-3) was 45.6 µM (inactive) and the GI50 (RPMI-8226) was 18 µM (inactive). For the same compound, the GI50 (RXF 393) was 19.9 µM (inactive), the GI50 (SF-268) was 32.8 µM (inactive) and the GI50 (SF-295) was 96.6 µM (inactive). For the same compound, the GI50 (SF-539) was 40.6 µM (inactive), the GI50 (SK-MEL-28) was 64.7 µM (inactive) and the GI50 (SK-MEL-2) was 32.1 µM (inactive). The GI50 (SK-MEL-5) was 38.6 µM (inactive), the GI50 (SK-OV-3) was > 100 µM (inactive) and the GI50 (SN12C) was 23.7 µM (inactive). The GI50 (SNB-19) was 67.5 µM (inactive), the GI50 (SNB-75) was 22.2 µM (inactive) and the GI50 (SR) was 18.9 µM (inactive). For the same compound, the GI50 (SW-620) was 30.6 µM (inactive), the GI50 (T47D) was 39.4 µM (inactive) and the GI50 (TK-10) was 46.3 µM (inactive). The GI50 (U-251) was 40.6 µM (inactive), the GI50 (UACC-257) was 32.7 µM (inactive) and the GI50 (UACC-62) was 65.3 µM (inactive). The GI50 (UO-31) was 31.3 µM (inactive).
